According to patent US10028506B2, “Plant strengthener comprising a tocopherol and a boron compound” (COMPO EXPERT GMBH, priority 2013, dated 2018):

Tests used:
Assay type in all cases: in vivo
[1] = system: sweet cherry (variety Hedelfinger) inflorescences, severed branches; experiment: Frost protection activity on sweet cherry inflorescences in frost chamber; details: dilute aqueous preparation (0.25 kg/ha), −2° C. for 4 hours
Method: (§1) For the following studies, tocopherol-comprising formulations were diluted with water to give a tocopherol concentration of 0.25% by weight.
(§2) Boroethanolamine was diluted with water to give a concentration of 0.25% by weight.
(§3) Freshly severed branches with 20 to 50 inflorescences (inflorescence stage BBCH 60-69) were used for studying the protection of inflorescences. The twigs were sprayed to runoff point with the aqueous dilution of the respective formulation, using a hand-held sprayer.
(§4) The tests of the formulations in respect of their frost protectant activity were carried out under controlled conditions in frost chambers with fruit-tree inflorescences (apple (variety Elstar), severed branches, sweet cherry (variety Hedelfinger), severed branches).
(§5) The fruit trees were treated 24 hours before the frost event by spraying the inflorescences with the dilute formulation.
(§6) (b) Treatment with formulation FV1 (0.25 g/l tocopherol),
(§7) (c) Treatment with formulation F1 (0.25 g/l tocopherol)+0.25 g/l boroethanolamine).
(§8) The branches were severed from the plant shortly before the test and then exposed to a temperature of −2° C. for a defined period (4 hours). On the following day, the relative number of the inflorescences with frost damage was determined visually. Damage was considered to be browning of the floral tissue (pedicel and ovaries).

[2] = system: apple (variety Elstar) inflorescences, severed branches; experiment: Frost protection activity on apple inflorescences in frost chamber; details: dilute aqueous preparation (0.25 kg/ha), −2° C. for 4 hours
Method: as §1, §2, §3, §4, §5, §6, §7, §8

[3] = system: tangerine trees cv. "satsuma" fruits; experiment: Protection against sun-scorch, field experiments on tangerines (satsumas); details: dilute aqueous preparation (0.25 kg/ha); tangerines field experiment
Method: For the field experiments, the formulations were diluted with tap water in an amount of 100 l per kg of formulation. The plants were sprayed with the aqueous dilution with the aid of a commercially available plant protection sprayer at an application rate of 0.25 kg tocopherol/ha. The study was carried out in a fruit plantation in South Africa (Western Cape region, Simondium) in February. To this end, tangerine trees cv. “satsuma” were sprayed with an aqueous dilution of formulation F2 or formulation FV2 6 days before the harvest in two adjacent plots, in parallel experiments. The controls used were in each case untreated trees of the same plot. To determine the damage, in each case approximately 30 fruits were harvested from each tree of the treated trees and of the untreated trees and then observed. The proportion of damaged fruits of the treated trees and of the untreated trees of the respective experiment was determined, and the percentage reduction in damage was determined on this basis. Damage was considered to be yellowish discolorations of the green fruit skin.

[4] = system: apple trees cv. "Granny Smith" fruits; experiment: Protection against sun-scorch, field experiments on apples; details: dilute aqueous preparation (0.25 kg/ha); apples field experiment
Method: For the field experiments, the formulations were diluted with tap water in an amount of 100 l per kg of formulation. The plants were sprayed with the aqueous dilution with the aid of a commercially available plant protection sprayer at an application rate of 0.25 kg tocopherol/ha. The study was carried out in an apple plantation in South Africa (Somerset-West region) in February. To this end, apple trees cv. “Granny Smith” were sprayed with an aqueous dilution of formulation F2 or formulation FV2 8 days before the harvest in two adjacent plots, in parallel experiments. The controls used were in each case untreated trees of the same plot. To determine the damage, in each case approximately 30 fruits were harvested from each tree of the treated trees and of the untreated trees and then observed. The proportion of damaged fruits of the treated trees and of the untreated trees of the respective experiment was determined, and the percentage reduction in damage was determined on this basis. Damage was considered to be reddish and brownish discolorations of the fruit skin.

NCCOB(O)O [boroethanolamine]
no significant change over the control: change in frost damage over the control [1] | change in frost damage over the control [2] | change in sun-scorch damage over the control [3] | change in sun-scorch damage over the control [4]
